We go through 17 compounds from ChEMBL document CHEMBL4417631, “Oral peptide inhibitors of interleukin-23 receptor and their use to treat inflammatory bowel diseases” (2017).

Each structure is given as a SMILES string. *1 amine or outer side, *2 acyl side, *3 side chain or, on linkers, in order; H or OH if unused. Where a SMILES comes first, the peptide text is derived from it. Bridges are numbered along the chain shown (N, C = ends). Roman numbers before positions name the chains, in order. [ ]: non-standard residue; d: D form. Abu(4-yl) = O=C([C@H](CC[*:3])N[*:1])[*:2]; 2Nal = N[C@@H](Cc1ccc2ccccc2c1)C(=O)O; Diglycolyl = O=C(COCC(=O)[*:2])[*:1]; AEF = NCCOc1ccc(C[C@H](N)C(=O)O)cc1; Aib = CC(C)(N)C(=O)O

Series [1] concerns the target T1, Interleukin-23 receptor (Homo sapiens, UniProt Q5VWK5).
T1 sequence (Q5VWK5 whole entry): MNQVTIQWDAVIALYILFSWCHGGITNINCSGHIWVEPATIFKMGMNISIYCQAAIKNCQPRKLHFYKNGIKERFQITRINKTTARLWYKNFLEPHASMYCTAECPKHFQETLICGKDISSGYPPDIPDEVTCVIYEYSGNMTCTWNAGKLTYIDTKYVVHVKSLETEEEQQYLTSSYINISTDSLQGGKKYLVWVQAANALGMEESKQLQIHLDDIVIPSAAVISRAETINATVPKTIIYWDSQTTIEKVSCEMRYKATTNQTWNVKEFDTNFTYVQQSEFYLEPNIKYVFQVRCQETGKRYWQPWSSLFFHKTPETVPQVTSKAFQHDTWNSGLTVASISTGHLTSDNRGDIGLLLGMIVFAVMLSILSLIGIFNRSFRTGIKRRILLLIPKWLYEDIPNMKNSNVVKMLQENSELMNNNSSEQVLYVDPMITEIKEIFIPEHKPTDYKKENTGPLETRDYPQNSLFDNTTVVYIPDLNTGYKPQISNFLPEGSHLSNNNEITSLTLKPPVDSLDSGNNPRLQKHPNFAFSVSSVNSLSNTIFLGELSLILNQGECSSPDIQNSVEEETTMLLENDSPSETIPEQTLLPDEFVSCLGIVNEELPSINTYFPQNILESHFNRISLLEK
The experiment in a line: Inhibition of interleukin-23 binding to human interleukin-23 receptor incubated for 2 hrs by competitive binding ELISA. Background: An ELISA detects its analyte on a solid surface through an enzyme-linked reagent.

Series [2] can be described thus: Half life in simulated intestinal fluid at 20 uM by LC-MS/MS analysis. The class given is ADME.
The target in series [3] is T1, Interleukin-23 receptor. The experiment in a line: Inhibition of interleukin-23 receptor in human DB cells assessed as reduction in IL-23-stimulated STAT3 phosphorylation incubated for 30 mins by HTRF assay. The format is cell-based. For orientation: Time-resolved FRET reads energy transfer from a long-lived donor to a nearby acceptor.

In general, IC50 refers to the concentration needed to halve the response being measured. What is called half-life is how long it takes for the measured level to halve. Read a low half-life as rapid decline. On to `CCCCCCCC[C@H](NC(=O)[C@@H]1CSCC[C@H](NC(C)=O)C(=O)N[C@@H](CCC(N)=O)C(=O)N[C@@H]([C@@H](C)O)C(=O)N[C@@H](Cc2c[nH]c3ccccc23)C(=O)N[C@@H](CCC(N)=O)C(=O)N1)C(=O)N[C@@H](Cc1ccc2ccccc2c1)C(=O)N[C@@](C)(CCCCN)C(=O)N[C@@H](CCCCNC(C)=O)C(=O)N[C@@H](CC(N)=O)C(=O)NCC(N)=O`, for which the IC50 on Interleukin-23 receptor [1] was 10000 nM. In series [2], this compound returned a half-life at 20 µM below 1 h.

As for `CC(=O)N[C@H](C(=O)N[C@@H](CO)C(=O)N[C@H](C(=O)N[C@@H](Cc1c[nH]c2ccccc12)C(=O)N[C@@H](CCC(N)=O)C(=O)N[C@H](C(=O)N[C@@H](Cc1ccc(OCCN)cc1)C(=O)N[C@@H](Cc1ccc2ccccc2c1)C(=O)N[C@@](C)(CCCCN)C(=O)N[C@@H](CCC(=O)O)C(=O)N[C@@H](CC(N)=O)C(=O)NCC(N)=O)C(C)(C)S)[C@@H](C)O)C(C)(C)S`, the IC50 at Interleukin-23 receptor [3] is below 10 nM; at Interleukin-23 receptor [1], 10 to 25 nM.

With `CC(=O)N[C@H]1CCSC[C@@H](C(=O)N[C@@H](Cc2ccc(OCCNC(=O)COCC(=O)NCCOc3ccc(C[C@H](NC(=O)[C@@H]4CSCC[C@H](NC(C)=O)C(=O)N[C@@H](CCC(N)=O)C(=O)N[C@@H]([C@@H](C)O)C(=O)N[C@@H](Cc5c[nH]c6ccccc56)C(=O)N[C@@H](CCC(N)=O)C(=O)N4)C(=O)N[C@@H](Cc4ccc5ccccc5c4)C(=O)NC(C)(C)C(=O)N[C@@H](CCC(N)=O)C(=O)N[C@@H](CC(N)=O)C(=O)NCC(N)=O)cc3)cc2)C(=O)N[C@@H](Cc2ccc3ccccc3c2)C(=O)NC(C)(C)C(=O)N[C@@H](CCC(N)=O)C(=O)N[C@@H](CC(N)=O)C(=O)NCC(N)=O)NC(=O)[C@H](CCC(N)=O)NC(=O)[C@H](Cc2c[nH]c3ccccc23)NC(=O)[C@H]([C@@H](C)O)NC(=O)[C@H](CCC(N)=O)NC1=O` (I: Ac-[Abu(4-yl)]QTWQC[AEF][2Nal][Aib]QNG-NH2 / II: Ac-[Abu(4-yl)]QTWQC[AEF][2Nal][Aib]QNG-NH2; thioether I:1-I:6, II:1-II:6; linker I:7-II:7 via Diglycolyl), the IC50 at Interleukin-23 receptor [3] was 10 to 25 nM; on Interleukin-23 receptor [1], 25 to 100 nM.

With `CC(=O)N[C@H](C(=O)N[C@@H](CCC(N)=O)C(=O)N[C@H](C(=O)N[C@@H](Cc1c[nH]c2ccccc12)C(=O)N[C@@H](CCC(N)=O)C(=O)N[C@H](C(=O)N[C@@H](Cc1ccc(O)cc1)C(=O)N[C@@H](Cc1c[nH]c2ccccc12)C(=O)N[C@H](CC(N)=O)C(=O)N[C@@H](CCC(=O)O)C(=O)N[C@@H](CC(N)=O)C(=O)NCC(N)=O)C(C)(C)S)[C@@H](C)O)C(C)(C)S`, the IC50 on Interleukin-23 receptor [1] lay in the range of 1000 to 10000 nM. Besides, in series [2], the half-life at 20 µM was 3 to 6 h.

Regarding `CC(=O)NCCCC[C@H](NC(=O)[C@](C)(CCCCN)NC(=O)[C@H](Cc1c[nH]c2ccccc12)NC(=O)[C@H](Cc1ccc(OCCN)cc1)NC(=O)[C@@H]1CSCC[C@H](NC(C)=O)C(=O)N[C@@H](CCC(N)=O)C(=O)N[C@@H]([C@@H](C)O)C(=O)N[C@@H](Cc2c[nH]c3ccccc23)C(=O)N[C@@H](CCC(N)=O)C(=O)N1)C(=O)NC1CNC(=O)CNC1=O` (some centres not stated), the half-maximal inhibitory concentration (IC50) was below 10 nM on Interleukin-23 receptor [3] and 25 to 100 nM on Interleukin-23 receptor [1].

For the compound `CC(=O)N[C@@H](CS)C(=O)N[C@@H](CCC(N)=O)C(=O)N[C@H](C(=O)N[C@@H](Cc1c[nH]c2ccccc12)C(=O)N[C@@H](CCC(N)=O)C(=O)N[C@@H](CS)C(=O)N[C@@H](Cc1ccc(O)cc1)C(=O)N[C@@H](Cc1c[nH]c2ccccc12)C(=O)N[C@@H](CCC(C)C)C(=O)N[C@@H](CCC(=O)O)C(=O)N[C@@H](CC(N)=O)C(=O)NCC(=O)N[C@@H](CCCNC(=N)N)C(N)=O)[C@@H](C)O`, the IC50 at Interleukin-23 receptor [3] is above 1000 nM; on Interleukin-23 receptor [1], above 10000 nM.

In the case of `COc1ccc(C[C@H](NC(=O)[C@@H](NC(=O)[C@H](CCC(N)=O)NC(=O)[C@H](Cc2c[nH]c3ccccc23)NC(=O)[C@@H](NC(=O)[C@H](CCC(N)=O)NC(=O)[C@@H](NC(C)=O)C(C)(C)S)[C@@H](C)O)C(C)(C)S)C(=O)N[C@@H](Cc2ccc3ccccc3c2)C(=O)N[C@@](C)(CCCN)C(=O)N[C@@H](CCCCNC(C)=O)C(=O)N[C@@H](CC(N)=O)C(=O)NCC(N)=O)cc1`, the IC50 at Interleukin-23 receptor [3] lay in the range of 25 to 100 nM; on Interleukin-23 receptor [1] it was 100 to 1000 nM.

Take `CC(=O)N[C@@H](CS)C(=O)N[C@@H](C)C(=O)N[C@@H](CC(=O)O)C(=O)N[C@@H](Cc1c[nH]c2ccccc12)C(=O)N[C@H](C(=O)N[C@@H](CS)C(=O)N[C@@H](Cc1ccc(O)cc1)C(=O)N[C@@H](Cc1c[nH]c2ccccc12)C(=O)N[C@H](Cc1cnc[nH]1)C(=O)N[C@H](C(=O)N[C@@H](Cc1ccccc1)C(=O)NCC(=O)NCCOCC(=O)N[C@H](CCCCN)C(N)=O)[C@@H](C)O)C(C)C`: the concentration for half-maximal inhibition (IC50) on Interleukin-23 receptor [3] and on Interleukin-23 receptor [1] was 100 to 1000 nM each time.

Turning to `CC(=O)N[C@@H](CS)C(=O)N[C@H](C(=O)N[C@@H](CC(=O)O)C(=O)N[C@@H](Cc1c[nH]c2ccccc12)C(=O)N[C@@H](CCCCN)C(=O)N[C@@H](CS)C(=O)N[C@@H](Cc1ccc(O)cc1)C(=O)N[C@@H](Cc1c[nH]c2ccccc12)C(=O)N[C@@H](Cc1cnc[nH]1)C(=O)N[C@H](C(=O)N[C@@H](Cc1ccccc1)C(=O)NCC(N)=O)[C@@H](C)O)[C@@H](C)O`, the IC50 at Interleukin-23 receptor [3] and on Interleukin-23 receptor [1] was 100 to 1000 nM in each case.

On to `CC(=O)N[C@H]1CCSC[C@@H](C(=O)N[C@@H](Cc2ccc(F)c(F)c2)C(=O)N[C@@H](Cc2ccc3ccccc3c2)C(=O)NC(C)(C)C(=O)N[C@@H](CCC(=O)O)C(=O)N[C@@H](CC(N)=O)C(=O)NCC(N)=O)NC(=O)[C@H](CCC(N)=O)NC(=O)[C@H](Cc2c[nH]c3ccccc23)NC(=O)[C@H]([C@@H](C)O)NC(=O)[C@H](CCC(N)=O)NC1=O`, for which the IC50 at Interleukin-23 receptor [3] was in the range of 10 to 25 nM; on Interleukin-23 receptor [1], 25 to 100 nM.

Take `CC(=O)N[C@@H](CS)C(=O)N[C@@H](C)C(=O)N[C@@H](CC(=O)O)C(=O)N[C@@H](Cc1c[nH]c2ccccc12)C(=O)N[C@H](C(=O)N[C@@H](CS)C(=O)N[C@@H](Cc1ccc(O)cc1)C(=O)N[C@@H](Cc1c[nH]c2ccccc12)C(=O)N[C@@H](Cc1cnc[nH]1)C(=O)N[C@H](C(=O)N[C@@H](Cc1ccccc1)C(=O)NCC(=O)N[C@H](CCCCN)C(=O)O)[C@@H](C)O)C(C)C`: the IC50 on Interleukin-23 receptor [3] and on Interleukin-23 receptor [1] was 100 to 1000 nM throughout.

`CC(=O)N[C@H](C(=O)N[C@@H](CCC(N)=O)C(=O)N[C@H](C(=O)N[C@@H](Cc1c[nH]c2ccccc12)C(=O)N[C@@H](CCC(N)=O)C(=O)N[C@H](C(=O)N[C@@H](Cc1ccc(OCCN)cc1)C(=O)N[C@@H](Cc1ccc2ccccc2c1)C(=O)N[C@@](C)(CCCCN)C(=O)N[C@@H](CCC(=O)O)C(=O)N[C@@H](CC(N)=O)C(=O)NCC(N)=O)C(C)(C)S)[C@@H](C)O)C(C)(C)S`: the IC50 at Interleukin-23 receptor [3] is below 10 nM; on Interleukin-23 receptor [1], 10 to 25 nM.

As for `CC(=O)N[C@H](C(=O)N[C@@H](CC(N)=O)C(=O)N[C@H](C(=O)N[C@@H](Cc1c[nH]c2ccccc12)C(=O)N[C@@H](CCC(N)=O)C(=O)N[C@H](C(=O)N[C@@H](Cc1ccc(OCCN)cc1)C(=O)N[C@@H](Cc1ccc2ccccc2c1)C(=O)N[C@@](C)(CCCCN)C(=O)N[C@@H](CCC(=O)O)C(=O)N[C@@H](CC(N)=O)C(=O)NCC(N)=O)C(C)(C)S)[C@@H](C)O)C(C)(C)S`, the IC50 at Interleukin-23 receptor [3] and at Interleukin-23 receptor [1] was below 10 nM throughout.

In the case of `CC(=O)N[C@H](C(=O)NCC(=O)N[C@H](C(=O)N[C@@H](Cc1c[nH]c2ccccc12)C(=O)N[C@@H](CCC(N)=O)C(=O)N[C@H](C(=O)N[C@@H](Cc1ccc(OCCN)cc1)C(=O)N[C@@H](Cc1ccc2ccccc2c1)C(=O)N[C@@](C)(CCCCN)C(=O)N[C@@H](CCC(=O)O)C(=O)N[C@@H](CC(N)=O)C(=O)NCC(N)=O)C(C)(C)S)[C@@H](C)O)C(C)(C)S`, the results for the IC50 at Interleukin-23 receptor [3] and on Interleukin-23 receptor [1] were below 10 nM and 10 to 25 nM, respectively.

In the case of `CC(=O)NCCCC[C@H](NC(=O)[C@H](CCC(C)C)NC(=O)[C@H](Cc1ccc2ccccc2c1)NC(=O)[C@H](Cc1ccc(OCCN)cc1)NC(=O)[C@@H](NC(=O)[C@H](CCC(N)=O)NC(=O)[C@H](Cc1c[nH]c2ccccc12)NC(=O)[C@@H](NC(=O)[C@H](CCC(N)=O)NC(=O)[C@@H](NC(C)=O)C(C)(C)S)[C@@H](C)O)C(C)(C)S)C(=O)N[C@@H](CC(N)=O)C(=O)NCCC(N)=O`, the half-inhibitory concentration (IC50) at Interleukin-23 receptor [3] is below 10 nM.

In the case of `CC(=O)N[C@H](C(=O)N[C@H](C(=O)N[C@H](C(=O)N[C@@H](Cc1c[nH]c2ccccc12)C(=O)N[C@@H](CCC(N)=O)C(=O)N[C@H](C(=O)N[C@@H](Cc1ccc(OCCN)cc1)C(=O)N[C@@H](Cc1ccc2ccccc2c1)C(=O)N[C@@](C)(CCCCN)C(=O)N[C@@H](CCC(=O)O)C(=O)N[C@@H](CC(N)=O)C(=O)NCC(N)=O)C(C)(C)S)[C@@H](C)O)[C@@H](C)O)C(C)(C)S`, the figures for the IC50 on Interleukin-23 receptor [3] and at Interleukin-23 receptor [1] were below 10 nM and 10 to 25 nM, respectively.

For `CC(=O)N[C@H]1CCSC[C@@H](C(=O)N[C@@H](Cc2ccc(OCCN)cc2)C(=O)N[C@@H](Cc2c[nH]c3ccc(O)cc23)C(=O)NC(C)(C)C(=O)N[C@@H](CCC(N)=O)C(=O)N[C@@H](CC(N)=O)C(=O)NCC(N)=O)NC(=O)[C@H](CCC(N)=O)NC(=O)[C@H](Cc2c[nH]c3ccccc23)NC(=O)[C@H]([C@@H](C)O)NC(=O)[C@H](CCC(N)=O)NC1=O`, the IC50 on Interleukin-23 receptor [3] lay within 10 to 25 nM.
